Assay results taken from patent US20250154250A1, “CEACAM5 ADC-ANTI-PD1/PD-L1 COMBINATION THERAPY” (SANOFI, priority 2021, published 2025).
Like-named read-outs stand apart in the source and are kept apart here.

Legend:
[1] = tested on: NSQ NSCLC with tumor CEACAM5 expression
[2] = tested on: subcutaneous colon MC38 syngeneic tumor; assay: subcutaneous colon MC38 syngeneic tumor model; conditions: for tolerability of treatments: doses lower than maximal tolerated dose (MTD); for Drug death (day) / Mean body weight change in % at nadir (day) / Regression CR / Regression PR: n=6
Description: […] Control groups were left untreated. The doses of the compounds used are given in mg/kg.
For the evaluation of anti-tumor activity, animals were weighed, and tumors were measured by caliper 2 times weekly. A dosage producing a 20% weight loss at nadir (mean of group) or 10% or more drug deaths, was considered an excessively toxic dosage. Animal body weights included the tumor weights. Tumor volumes were calculated using the formula mass (mm^3)=[length (mm)×width (mm)×width (mm)]/2. The primary efficacy end points are ΔT/ΔC, percent median regression, partial and complete regressions (PR and CR).
Changes in tumor volume for each treated (T) and control (C) are calculated for each tumor by subtracting the tumor volume on the day of first treatment (staging day) from the tumor volume on the specified observation day. The median ΔT is calculated for the treated group and the median ΔC is calculated for the control group. Then the ratio ΔT/ΔC is calculated and expressed as a percentage: ΔT/ΔC=(delta T/delta C)×100.
The dose is considered as therapeutically active when ΔT/ΔC is lower than 40% and very active when ΔT/ΔC is lower than 10%.
% tumor regression is defined as the % of tumor volume decrease in the treated group at a specified observation day compared to its volume on the first day of first treatment.
At a specific time point and for each animal, % regression is calculated. The median % regression is then calculated for the group:
Partial regression (PR): Regressions are defined as partial if the tumor volume decreases to 50% of the tumor volume at the start of treatment.
Complete regression (CR): Complete regression is achieved when tumor volume=0 mm^3 (CR is considered when tumor volume cannot be recorded).
Control groups were left untreated. The doses of the compounds used are given in mg/kg.
See above (Ex 2) for the conditions of anti-tumor activity and toxicity evaluation.

CEACAM8 = CEACAM8 (Homo sapiens, UniProt P31997)
CEACAM7 = CEACAM7 (Homo sapiens, UniProt Q14002)
CEACAM1 = CEACAM1 (Homo sapiens, UniProt P13688)
[3] = tested on: human primary colon and stomach tumors; conditions: mice bearing human primary colon and stomach tumors; see WO 2014/079886; cited from earlier work
CEACAM6 = CEACAM6 (Homo sapiens, UniProt P40199)
[4] = huMAb2-3-SPDB-DM4 15 mg/kg IV day 10, alone or + antibody 10 mg/kg IV
[5] = huMAb2-3-SPDB-DM4 25 mg/kg IV day 10, alone or + antibody 10 mg/kg IV
[6] = antibody as single agent 10 mg/kg IV (total 40)

Sequence of CEACAM1 (P13688 35-526): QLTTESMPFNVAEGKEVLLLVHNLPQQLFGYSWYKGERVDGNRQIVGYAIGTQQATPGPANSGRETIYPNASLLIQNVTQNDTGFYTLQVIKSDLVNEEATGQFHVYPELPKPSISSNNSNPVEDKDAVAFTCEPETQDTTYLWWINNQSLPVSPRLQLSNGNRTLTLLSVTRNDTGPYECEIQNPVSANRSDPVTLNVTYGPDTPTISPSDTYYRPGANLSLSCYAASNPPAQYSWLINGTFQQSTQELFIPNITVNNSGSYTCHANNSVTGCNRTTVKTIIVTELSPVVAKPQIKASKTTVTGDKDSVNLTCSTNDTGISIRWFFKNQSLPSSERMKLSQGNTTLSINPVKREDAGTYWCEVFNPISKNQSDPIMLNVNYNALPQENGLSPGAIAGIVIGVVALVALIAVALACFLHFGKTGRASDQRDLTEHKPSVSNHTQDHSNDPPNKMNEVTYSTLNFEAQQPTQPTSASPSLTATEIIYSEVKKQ
Sequence of CEACAM6 (P40199 35-320): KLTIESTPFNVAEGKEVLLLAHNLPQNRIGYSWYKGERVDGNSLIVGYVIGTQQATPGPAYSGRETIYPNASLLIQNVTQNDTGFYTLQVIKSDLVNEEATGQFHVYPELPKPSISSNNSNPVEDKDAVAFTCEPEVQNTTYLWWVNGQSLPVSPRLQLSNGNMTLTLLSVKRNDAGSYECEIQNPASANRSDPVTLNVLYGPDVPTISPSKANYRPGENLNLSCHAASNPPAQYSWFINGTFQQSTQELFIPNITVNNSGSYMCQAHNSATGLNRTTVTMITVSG
Sequence of CEACAM7 (Q14002 36-242): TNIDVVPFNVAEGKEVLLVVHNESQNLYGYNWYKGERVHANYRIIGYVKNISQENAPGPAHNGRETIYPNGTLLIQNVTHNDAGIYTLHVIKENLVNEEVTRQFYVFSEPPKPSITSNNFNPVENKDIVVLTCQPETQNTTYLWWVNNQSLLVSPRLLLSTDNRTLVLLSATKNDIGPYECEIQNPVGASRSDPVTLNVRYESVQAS
Sequence of CEACAM8 (P31997 35-320): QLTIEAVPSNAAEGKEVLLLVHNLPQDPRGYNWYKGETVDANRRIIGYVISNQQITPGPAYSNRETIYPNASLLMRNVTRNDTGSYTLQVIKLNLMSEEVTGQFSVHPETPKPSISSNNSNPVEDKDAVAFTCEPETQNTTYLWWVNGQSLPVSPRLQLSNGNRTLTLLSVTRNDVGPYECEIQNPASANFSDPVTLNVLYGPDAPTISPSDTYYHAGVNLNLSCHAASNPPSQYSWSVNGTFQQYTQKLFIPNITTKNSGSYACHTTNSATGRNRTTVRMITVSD

Substance: tusamitamab ravtansine
- overall response rate per RECIST 1.1 ([1]; 28 heavily pre-treated patients, tumor CEACAM5 expression ≥1% and <5 0%): 7.1%
- overall response rate per RECIST 1.1 ([1]; 64 heavily pre-treated patients, tumor CEACAM5 expression ≥50%): 20.3%
- tolerability of treatments [2]: well tolerated and did not induce toxicity
- Biological comments [2, 4]: Inactive
- Median ΔT/ΔC in % (D 22) [2, 4]: 46%
- Drug death (day) [2, 4]: 0/6
- Mean body weight change in % at nadir (day) [2, 4]: +3.95%
- Regression CR [2, 4]: 0/6
- Regression PR [2, 4]: 0/6
- Biological comments [2, 5]: highly active
- Median ΔT/ΔC in % (D 22) [2, 5]: <0%
- Drug death (day) [2, 5]: 0/6
- Mean body weight change in % at nadir (day) [2, 5]: +1.30%
- Regression CR [2, 5]: 1/6
- Regression PR [2, 5]: 4/6
- recognition of CEACAM8 (CEACAM8): does not recognize
- recognition of CEACAM7 (CEACAM7): does not recognize
- recognition of CEACAM1 (CEACAM1): does not recognize
- tumor growth in vivo [3]: markedly inhibit tumor growth
- recognition of CEACAM6 (CEACAM6): does not recognize

Substance: Atezolizumab [anti-mu/huPD-L1 (Atezolizumab), reference compound]
- Biological comments [2, 6]: Marginally
- Biological comments ([2]; antibody as single agent 10 mg/kg IV (total 40), listed as anti-mu/PD-L1 mAb): marginally active
- Drug death (day) [2, 6]: 0/6
- Mean body weight change in % at nadir (day) [2, 6]: +2.08%
- Regression CR [2, 6]: 1/6
- Regression PR [2, 6]: 1/6
- tolerability of treatments [2]: well tolerated and did not induce toxicity
